# Test results reported in ChEMBL document CHEMBL1201862, “PubChem BioAssay data set” (2004).
#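 96-well plates; 48 h exposure; 5 concentrations. Endpoints by linear interpolation between flanking doses. Not reached: highest tested concentration assigned. GI50: concentration for 50% inhibition of growth.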 Calls of active or inactive are those of the source. Rule as the data show it: active = GI50 up to about 1.1 µM and inactive = higher.
# Assays:
# Experiment in all cases: NCI tumour cell line growth inhibition, 48 h
# SNB-19 = test system: SNB-19
# HOP-18 = test system: HOP-18
# XF498 = test system: XF498
# CAKI-1 = test system: CAKI-1
# RPMI-8226 = test system: RPMI-8226
# DLD-1 = test system: DLD-1
# A498 = test system: A498
# KM-20L2 = test system: KM-20L2
# SF-268 = test system: SF-268
# SNB-78 = test system: SNB-78
# MCF7 = test system: MCF7
# NCI-H226 = test system: NCI-H226
# NCI-H522 = test system: NCI-H522
# NCI/ADR-RES = test system: NCI/ADR-RES
# PC-3 = test system: PC-3
# MDA-MB-435 = test system: MDA-MB-435
# DU-145 = test system: DU-145
# T47D = test system: T47D
# MDA-MB-231 = test system: MDA-MB-231
# MDA-N = test system: MDA-N
Compound,GI50 (SNB-19),GI50 (HOP-18),GI50 (XF498),GI50 (CAKI-1),GI50 (RPMI-8226),GI50 (DLD-1),GI50 (A498),GI50 (KM-20L2),GI50 (SF-268),GI50 (SNB-78),GI50 (MCF7),GI50 (NCI-H226),GI50 (NCI-H522),GI50 (NCI/ADR-RES),GI50 (PC-3),GI50 (MDA-MB-435),GI50 (DU-145),GI50 (T47D),GI50 (MDA-MB-231),GI50 (MDA-N)
COc1ccc(-c2cc3[nH]nc(N)c3c(=O)o2)cc1,> 100 µM (inactive),> 100 µM (inactive),> 100 µM (inactive),73.6 µM (inactive),> 100 µM (inactive),> 100 µM (inactive),76.9 µM (inactive),> 100 µM (inactive),81.3 µM (inactive),> 100 µM (inactive),,,,,,,,,,
O=C1C=C(C2OC(CO)C(O)C2O)C(=O)N1 (stereo not given),> 100 µM (inactive),> 100 µM (inactive),< 0.01 µM (active),,> 51.1 µM (inactive),> 85.3 µM (inactive),> 100 µM (inactive),> 100 µM (inactive),> 100 µM (inactive),> 100 µM (inactive),> 91.8 µM (inactive),> 100 µM (inactive),19.8 µM (inactive),> 100 µM (inactive),,,,,,
C/C(=N\Oc1cc(Cl)ncn1)c1ccccn1,> 100 µM (inactive),,,18.7 µM (inactive),> 100 µM (inactive),,,,58.2 µM (inactive),,55.3 µM (inactive),> 100 µM (inactive),17.9 µM (inactive),> 100 µM (inactive),45.3 µM (inactive),47.4 µM (inactive),48.9 µM (inactive),30.2 µM (inactive),19.8 µM (inactive),> 100 µM (inactive)
COC1OC2=CCC3C(=O)NC(=O)C3C2[C@H](OCc2ccccc2)C1OCc1ccccc1 (stereo not given in full),,3.48 µM (inactive),,,,1.97 µM (inactive),,2.25 µM (inactive),,2.03 µM (inactive),,,1.67 µM (inactive),,,,,,,
CC(=O)OCc1nnn2c1CCC2,,> 100 µM (inactive),> 100 µM (inactive),,,> 100 µM (inactive),,> 100 µM (inactive),,> 100 µM (inactive),,,> 100 µM (inactive),,,,,,,
COc1ccc(CN2C(=O)C(=O)N(C)C2=O)c2ccccc12,> 10 µM (inactive),,,> 10 µM (inactive),> 10 µM (inactive),,> 10 µM (inactive),,> 10 µM (inactive),,> 10 µM (inactive),> 10 µM (inactive),9.68 µM (inactive),> 10 µM (inactive),> 10 µM (inactive),> 10 µM (inactive),> 10 µM (inactive),> 10 µM (inactive),> 10 µM (inactive),7.06 µM (inactive)
CCOC(=O)c1csc(NC(=O)CCN2CCCC2)n1,> 100 µM (inactive),,,> 100 µM (inactive),86.7 µM (inactive),,,,,,> 100 µM (inactive),> 100 µM (inactive),,> 100 µM (inactive),> 100 µM (inactive),> 100 µM (inactive),> 100 µM (inactive),> 100 µM (inactive),> 100 µM (inactive),> 100 µM (inactive)
